Data as given in ChEMBL document CHEMBL1133056, “Structure-activity relationships of halichondrin B analogues: modifications at C.30-C.38” (Bioorg Med Chem Lett, 2000).

Assays:
DLD-1 = test: The compound was tested for cell growth inhibition against DLD-1 human colon cancer cells under continuous exposure conditions for 3-4 days; assay type: functional, cell-based
P388 [1] = test: The compound was tested for susceptibility to P-glycoprotein (PgP) mediated drug efflux using murine P388/VMDRC.04 cells under continuous exposure conditions for 3-4 days; assay type: functional, cell-based; settings: Mus musculus
P388 [2] = test: Fold resistance was calculated as IC50 ratio between retrovirally transformed P388/VMDRC.04 and parental P388/S cells; assay type: functional, Mus musculus
P388 [3] = test: The compound was tested for susceptibility to […] murine P388/S leukemia cells under continuous exposure conditions for 3-4 days; assay type: functional, cell-based; settings: Mus musculus
[4] = The compound was tested for its ability to maintain a irreversible mitotic block 10 hr after drug washout using flow cytometric analysis of U937 human histiocytic lymphoma cells; assay type: functional; settings: U-937, 10 h

Row | SMILES | IC50 (DLD-1) | IC50 (P388 [1]) | FR (P388 [2]) | IC50 (P388 [3]) | IC99 [4]
1 | C=C1C[C@@H]2CC[C@@]34C[C@@H]5O[C@@H]6[C@@H](O[C@H]7CC[C@H](CC(=O)O[C@@H]8C[C@@H]9O[C@H](CO)[C@@H](O)C[C@@H]9O[C@H]8C[C@H]8O[C@@H](CC[C@@H]1O2)C[C@@H](C)C8=C)O[C@@H]7[C@@H]6O3)[C@H]5O4 | 610 nM |  |  |  | 
2 | C=C1C[C@@H]2CC[C@@]34C[C@@H]5O[C@@H]6[C@@H](O[C@H]7CC[C@H](CC(=O)O[C@@H]8[C@@H](C)[C@@H]9O[C@@H]%10CCOC%10(O)C[C@@H]9O[C@H]8C[C@H]8O[C@@H](CC[C@@H]1O2)C[C@@H](C)C8=C)O[C@@H]7[C@@H]6O3)[C@H]5O4 (some centres not stated) | 5.2 nM | 6.3 nM | 2 | 3.1 nM | 1 µM
3 | C=C1C[C@@H]2CC[C@@]34C[C@@H]5O[C@@H]6[C@@H](O[C@H]7CC[C@H](CC(=O)O[C@@H]8[C@@H](C)[C@@H]9O[C@H](CO)[C@H](O)C[C@@H]9O[C@H]8C[C@H]8O[C@@H](CC[C@@H]1O2)C[C@@H](C)C8=C)O[C@@H]7[C@@H]6O3)[C@H]5O4 | 3.4 nM | 8.2 nM | 12 | 0.71 nM | 0.22 µM
4 | CC(=O)O[C@H]1C(=O)[C@@]2(C)[C@H]([C@H](OC(=O)c3ccccc3)[C@]3(O)C[C@H](OC(=O)[C@H](O)[C@@H](NC(=O)c4ccccc4)c4ccccc4)C(C)=C1C3(C)C)[C@]1(OC(C)=O)CO[C@@H]1C[C@@H]2O [PACLITAXEL] | 27 nM | 170 nM | 11 | 16 nM | 0.23 µM
5 | C=C1C[C@@H]2CC[C@@]34C[C@@H]5O[C@@H]6[C@@H](O[C@H]7CC[C@H](CC(=O)O[C@H]8C[C@@H]9O[C@H](CO)[C@@H](O)C[C@@H]9O[C@H]8C[C@H]8O[C@@H](CC[C@@H]1O2)C[C@@H](C)C8=C)O[C@@H]7[C@@H]6O3)[C@H]5O4 | 230 nM |  |  |  | 
6 | C=C1C[C@@H]2CC[C@@]34C[C@@H]5O[C@@H]6[C@@H](O[C@H]7CC[C@H](CC(=O)O[C@@H]8[C@@H](CC)[C@@H]9O[C@H](CO)[C@@H](O)C[C@@H]9O[C@H]8C[C@H]8O[C@@H](CC[C@@H]1O2)C[C@@H](C)C8=C)O[C@@H]7[C@@H]6O3)[C@H]5O4 | 6 nM | 16 nM | 10 | 1.6 nM | 1 µM
7 | C=C1C[C@@H]2CC[C@@]34C[C@@H]5O[C@@H]6[C@@H](O[C@H]7CC[C@H](CC(=O)O[C@@H]8[C@@H](C)[C@@H]9O[C@H](CCO)[C@@H](O)C[C@@H]9O[C@H]8C[C@H]8O[C@@H](CC[C@@H]1O2)C[C@@H](C)C8=C)O[C@@H]7[C@@H]6O3)[C@H]5O4 | 3.6 nM | 1.6 nM | 9.4 | 1.7 nM | > 1 µM
8 | C=C1C[C@@H]2CC[C@@]34C[C@@H]5O[C@@H]6[C@@H](O[C@H]7CC[C@H](CC(=O)O[C@@H]8[C@@H](C)[C@@H]9O[C@H](CCO)[C@H](O)C[C@@H]9O[C@H]8C[C@H]8O[C@@H](CC[C@@H]1O2)C[C@@H](C)C8=C)O[C@@H]7[C@@H]6O3)[C@H]5O4 | 4.6 nM | 8.8 nM | 4 | 2.2 nM | > 0.88 µM
9 | C=C1C[C@@H]2CC[C@@]34C[C@@H]5O[C@@H]6[C@@H](O[C@H]7CC[C@H](CC(=O)O[C@@H]8[C@@H](C)[C@@H]9O[C@H](CCOC)[C@H](O)C[C@@H]9O[C@H]8C[C@H]8O[C@@H](CC[C@@H]1O2)C[C@@H](C)C8=C)O[C@@H]7[C@@H]6O3)[C@H]5O4 | 1.2 nM | 1.5 nM | 2.7 | 0.55 nM | > 0.65 µM
10 | C=C1C[C@@H]2CC[C@@]34C[C@@H]5O[C@@H]6[C@@H](O[C@H]7CC[C@H](CC(=O)O[C@@H]8[C@@H](C)[C@@H]9O[C@@H]%10CCO[C@@H]%10C[C@@H]9O[C@H]8C[C@H]8O[C@@H](CC[C@@H]1O2)C[C@@H](C)C8=C)O[C@@H]7[C@@H]6O3)[C@H]5O4 | 2.6 nM | 2.7 nM | 2.1 | 1.3 nM | > 1 µM
11 | C=C1C[C@@H]2CC[C@@]34C[C@@H]5O[C@@H]6[C@@H](O[C@H]7CC[C@H](CC(=O)O[C@@H]8[C@@H](C)[C@@H]9O[C@@H]%10CC(O)O[C@@H]%10C[C@@H]9O[C@H]8C[C@H]8O[C@@H](CC[C@@H]1O2)C[C@@H](C)C8=C)O[C@@H]7[C@@H]6O3)[C@H]5O4 (some centres not stated) | 2.1 nM | 3.8 nM | 2.5 | 1.5 nM | > 1 µM
12 | C=C1C[C@@H]2CCC34C[C@@H]5O[C@@H]6[C@@H](O[C@H]7CC[C@H](CC(=O)O[C@@H]8[C@@H](C)[C@@H]9O[C@@H]%10C[C@]%11(C[C@@H]%12O[C@]%13(C[C@H](C)[C@@H]%14O[C@H]([C@@H](O)C[C@@H](O)CO)C[C@@H]%14O%13)C[C@H](C)[C@@H]%12O%11)O[C@@H]%10C[C@@H]9O[C@H]8C[C@H]8O[C@@H](CC[C@@H]1O2)C[C@@H](C)C8=C)O[C@@H]7[C@@H]6O3)[C@H]5O4 | 0.74 nM | 1.7 nM | 2.8 | 0.6 nM | 0.025 µM
